In patent publication US20250312355A1, “DHCR24 INHIBITORY COMPOUNDS” (ACADEMISCH ZIEKENHUIS LEIDEN (H.O.D.N. LUMC), priority 2022, published 2025):
Read-outs that look alike come from different tables or passages of the source.

Tests used:
HL-60 cells = test: IC50 determination: incorporation of 13C-acetate into cholesterol in HL-60 cells (GC-MS); assay type: cell-based; details: Homo sapiens, read-out: HL60 assay activity
Experimental: Two test concentrations (1 μM and 50 μM) were used. The compounds were dissolved in ethanol or DMSO and the testing-stock solutions are prepared taking a final dilution of 1:100 into account. Ultimately 10 μL of testing stock solution were added to 990 μL of lipid-free medium containing 1% lipoprotein deficient serum (LPDS) without antibiotics. HL-60 cells (1×10^6 cells) were incubated in 24-well plates in 1.0 mL of medium consisting of 990 μL of lipid free medium with 1% LPDS and 10 μL of respective inhibitor solution.
For IC50 determination, the incorporation of labelled acetate in the target molecule cholesterol is being assessed and the protocol is altered in the following manner: to each well 10 μL of a sterile sodium 2-^13C-acetate solution (6.25 mg/mL) were added before the addition of the inhibitor solution, leading to a final ^13C-acetate concentration of 62.5 μg/mL. After saponification 3×25 μL aliquots are taken for protein determination applying the Bradford reagent. After work-up and silylation, GC-MS analysis allows the quantification ^13C incorporation into cholesterol according to the below given formula. The percentage inhibition (see formula) relative to untreated control samples (0% inhibition) was plotted against the logarithmic inhibitor concentration using Graph Pad Prism 4 (or higher). A bottom level constant equal to 0 is set as constraint using a sigmoidal dose-response model with a various slope. All samples are normalised to their protein. For each concentration the inhibitory percentage is determined in triplicate.
The above formula is the calculation formula for the percentage inhibition, where AS represents the area sample; AI.S.C. represents the area internal standard control; PCC represents the protein content control; AC represents the area control; AI.S.S. represents the area internal standard sample; and PCs represents the protein content sample.

male E3L.CETP mice [1] = test: E3L.CETP mice on HFCD, SH42 for 4 weeks, flow cytometry of hepatic immune cells; assay type: in vivo
Excerpt: Hemizygous APOE*3-Leiden […]) mice were crossbred with homozygous human cholesteryl ester transfer protein (CETP) transgenic mice to generate heterozygous E3L.CETP mice on a C57BL/6J background [[…] al., “Cholesteryl ester transfer protein decreases high-density lipoprotein and severely aggravates atherosclerosis in APOE*3-Leiden mice”; Arterioscler Thromb Vasc Biol 26, 2552-2559 (2006)]. Because of phenotypical heterogeneity of E3L. CETP mice, non-responder mice were identified by 4-hour fasting plasma lipid levels, i.e., total cholesterol levels <2 mM and triglyceride levels <2 mM, and excluded before special diet treatment. LXRα-deficient mice (also on C57BL/6J background), generated by Deltagen using gene-targeting methods as described [T. Plosch et al., “Abcg5/Abcg8-independent pathways contribute to hepatobiliary cholesterol secretion in mice”; Am J Physiol Gastrointest Liver Physiol, 291, […]-423 (2006)(33)] were provided by Tularik (San Francisco, CA, US). […] All animals received humane care according to the criteria outlined in the NIH “Guide for the Care and Use of Laboratory Animals”. All animal procedures were performed in conformance with the guidelines from Directive 2010/63/EU of the European Parliament on the protection of animals used for scientific purposes. At the age of 10-12 weeks, male E3L.CETP mice and LXRα-deficient mice were fed a high fat high cholesterol diet (HFCD; […] LXRα-deficient mice were treated with either SH42 (n=11 mice) or vehicle (n=10 mice) for 4 weeks to evaluate effects on hepatic steatosis and immune cells. In a rescue experiment, male E3L.CETP mice were fed with HFCD for 10 weeks first and cotreated with SH42 (0.5 mg mouse^-1) or vehicle (saline containing 3.3% ethanol and 3.3% Cremophor EL) 3 times per week by intraperitoneal injection for additional 8 weeks.

male E3L.CETP mice [2] = test: Rescue experiment: E3L.CETP mice on HFCD for 10 weeks, then SH42 for additional 8 weeks; assay type: in vivo
Excerpt: Hemizygous APOE*3-Leiden (E3L) mice were crossbred with homozygous human cholesteryl ester transfer protein (CETP) transgenic mice to generate heterozygous E3L.CETP mice on a C57BL/6J background [M. Westerterp et al., “Cholesteryl ester transfer protein decreases high-density lipoprotein and severely aggravates atherosclerosis in APOE*3-Leiden mice”; Arterioscler Thromb Vasc Biol 26, 2552-2559 (2006)]. Because of phenotypical heterogeneity of E3L. CETP mice, non-responder mice were identified by 4-hour fasting plasma lipid levels, i.e., total cholesterol levels <2 mM and triglyceride levels <2 mM, and excluded before special diet treatment. LXRα-deficient mice (also on C57BL/6J background), generated by Deltagen using gene-targeting methods as described [T. Plosch et al., “Abcg5/Abcg8-independent pathways contribute to hepatobiliary cholesterol secretion in mice”; Am J Physiol Gastrointest Liver Physiol, 291, G414-423 (2006)(33)] were provided by Tularik (San Francisco, CA, US). Mice were group-housed in individually ventilated cages in standard conditions at room temperature (22° C.) with 40±5% relative humidity and a 12-h light/dark (7 am lights on; 7 pm lights off) cycle. All animals received humane care according to the criteria outlined in the NIH “Guide for the Care and Use of Laboratory Animals”. All animal procedures were performed in conformance with the guidelines from Directive 2010/63/EU of the European Parliament on the protection of animals used for scientific purposes.
At the age of 10-12 weeks, male E3L.CETP mice and LXRα-deficient mice were fed a high fat high cholesterol diet (HFCD; Altromin, Germany) containing 60% (energy) fat and 1% (wt/wt) cholesterol, and were randomized into two groups treated with either the DHCR24 inhibitor compound of Example 11 [also referred to herein as SH42] (0.5 mg·mouse^−1) or vehicle (saline containing 3.3% ethanol and 3.3% Cremophor EL) 3 times per week by intraperitoneal injection. E3L.CETP mice were treated for 4 weeks (n=6 mice per group) and 8 weeks (n=8 mice per group) to evaluate effects on hepatic immune cells via flow cytometry analysis and hepatic steatosis via quantitative lipidomic analysis, respectively. LXRα-deficient mice were treated with either SH42 (n=11 mice) or vehicle (n=10 mice) for 4 weeks to evaluate effects on hepatic steatosis and immune cells. In a rescue experiment, male E3L.CETP mice were fed with HFCD for 10 weeks first and cotreated with SH42 (0.5 mg mouse^−1) or vehicle (saline containing 3.3% ethanol and 3.3% Cremophor EL) 3 times per week by intraperitoneal injection for additional 8 weeks.
Body weight was measured weekly. Body composition (i.e. fat body and lean body mass; EchoMRI-100; EchoMRI, Houston, TX, USA) was evaluated before and after intervention. Food intake was determined during the treatment period.

male E3L.CETP mice [3] = test: E3L.CETP mice on high fat high cholesterol diet, SH42 for 8 weeks (hepatic steatosis, lipidomics, immunohistochemistry, plasma lipids); assay type: in vivo
[4] = HL-60 cells, 24 h, 13C-acetate incorporation into cholesterol
[5] = 10 weeks HFCD, then 8 weeks treatment
[6] = 8 weeks, absolute concentration
[7] = after 8 weeks of treatment, vs control group

C[C@H](CSSc1ccccn1)C1CCC2C3=CCC4C[C@@H](O)CC[C@]4(C)C3CC[C@@]21C (some centres unmarked) [Example 5]
IC50 (HL-60 cells; [4]): 417 nM

CC(=O)O[C@H]1CC[C@@]2(C)C(CC=C3C2CC[C@@]2(C)C3CCC2[C@H](C)COC=O)C1 (some centres unmarked) [Example 11]
circulating neutrophils (male E3L.CETP mice [1]): without affecting | hepatic neutrophils, change (male E3L.CETP mice [1]): −50% | monocytes in liver, change (male E3L.CETP mice [1]): −79% | MHCII+/CD11c+ activated KCs (male E3L.CETP mice [1]; flow cytometry): did not significantly reduce | MHCII−/CD11c− resting KCs, change (male E3L.CETP mice [1]; flow cytometry): +21% | total Kupffer cells (KCs), change (male E3L.CETP mice [1]; flow cytometry): +44% | total hepatic leukocytes, change (male E3L.CETP mice [1]; flow cytometry, p=0.09): −37% | monocytes in blood, change (male E3L.CETP mice [1]; p=0.06): −43% | body composition (male E3L.CETP mice [2]; [5]): did not significantly influence | collagen content (liver fibrosis), change (male E3L.CETP mice [2]; [5]): −50% | hepatic crown-like structures, change (male E3L.CETP mice [2]; [5]): −89% | hepatic steatosis (male E3L.CETP mice [2]; [5]): No difference | increase in plasma desmosterol levels (male E3L.CETP mice [2]; [5]): > 400 fold | liver weight (male E3L.CETP mice [2]; [5]): No difference | plasma alanine transaminase (ALT), change (male E3L.CETP mice [2]; [5]): −42% | total body weight (male E3L.CETP mice [2]; [5]): did not significantly influence | F4/80 positive area (male E3L.CETP mice [2]; mouse, in vivo): without significant influence | food intake (male E3L.CETP mice [3]; 0.5 mg/mouse i.p. 3 times per week, 8 weeks, vs vehicle): did not affect | HFCD-induced body weight gain (male E3L.CETP mice [3]; 0.5 mg/mouse i.p. 3 times per week, vs control group): temporarily preventing | fasting plasma glucose (male E3L.CETP mice [3]; 8 weeks): did not affect | fasting plasma insulin (male E3L.CETP mice [3]; 8 weeks): did not affect | homeostatic Model Assessment for Insulin Resistance (HOMA-IR) scores (male E3L.CETP mice [3]; 8 weeks): did not affect | weight of various tissues (liver, white adipose tissue, kidney, heart, lung, spleen, brown adipose tissue) (male E3L.CETP mice [3]; 8 weeks): unchanged | plasma levels of FFA, change (male E3L.CETP mice [3]; [6]): −16% | plasma levels of total DAG (male E3L.CETP mice [3]; [6]): did not affect | plasma levels of total TAG (male E3L.CETP mice [3]; [6]): did not affect | plasma levels of CE, change (male E3L.CETP mice [3]; 8 weeks, absolute concentration, p=0.08): −24% | hepatic F4/80 content, change (male E3L.CETP mice [3]; 8 weeks, immunohistochemistry): −29% | number of hepatic crown-like structures, change (male E3L.CETP mice [3]; 8 weeks, immunohistochemistry): −79% | hepatic free fatty acids (FFA), change (male E3L.CETP mice [3]; 8 weeks, liver): −16% | other liver lipid classes, including CER, PC, PE and SM (relative) (male E3L.CETP mice [3]; 8 weeks, liver lipidomics): relative increase | relative reduction of DAG in liver lipid class composition (male E3L.CETP mice [3]; 8 weeks, liver lipidomics): −22% | relative reduction of TAG in liver lipid class composition (male E3L.CETP mice [3]; 8 weeks, liver lipidomics): −21% | increase of hepatic desmosterol levels (male E3L.CETP mice [3]; 8 weeks, liver, vs vehicle): 10 fold | circulating CE (relative, plasma lipidome) (male E3L.CETP mice [3]; 8 weeks, plasma): relatively decreased | lactosylceramides (LCER), phosphatidylcholine (PC) and phosphatidylethanolamine (PE) (relative, plasma lipidome) (male E3L.CETP mice [3]; 8 weeks, plasma): relatively increasing | hepatic steatosis score (HE staining), change (male E3L.CETP mice [3]; 8 weeks, vs control treatment): −58% | liver lipid area, change (male E3L.CETP mice [3]; 8 weeks, vs control treatment): −35% | body composition (lean body mass and fat body mass) (male E3L.CETP mice [3]; [7]): comparable to that of the control group | body weight (male E3L.CETP mice [3]; [7]): comparable to that of the control group | plasma desmosterol levels (male E3L.CETP mice [3]; plasma, from undetectable levels (<0.5 μg·mL^−1)): 3.1 ± 0.4 µg/mL

CC(=O)O[C@H]1CC[C@@]2(C)C(CC=C3C2CC[C@@]2(C)C3CCC2[C@H](C)COC(=O)CN(C)C)C1 (some centres unmarked) [Example 25]
IC50 (HL-60 cells; HL-60, 24 h): 6 nM

C[C@H](CO)C1CCC2C3CC=C4C[C@@H](O)CC[C@]4(C)C3CC[C@@]21C (some centres unmarked) [Example 29]
IC50 (HL-60 cells; HL-60, 24 h): 3 nM

C[C@@H](CO)[C@H]1CC[C@H]2C3=CCC4C[C@@H](O)CC[C@]4(C)[C@H]3CC[C@]12C (stereo partly drawn) [Example 30, (3S,20R)-20-(Hydroxymethyl)-pregn-7-en-3-ol]
IC50 (HL-60 cells; HL-60, 24 h): 300 nM

C[C@H](CO)[C@H]1CC[C@H]2C3=CCC4C[C@H](O)CC[C@]4(C)[C@H]3CC[C@]12C (stereo partly drawn) [Example 31, (3R,20S)-20-(Hydroxymethyl)-pregn-7-en-3-ol]
IC50 (HL-60 cells; HL-60, 24 h): 280 nM

C[C@H](CO)C1CCC2c3ccc4c(c3CC[C@@]21C)CC[C@H](O)C4 (stereo partly drawn) [Example 33, (3S,20S)-20-(Hydroxymethyl)-pregn-5,7,9-trien-3-ol]
IC50 (HL-60 cells; [4]): 175 nM

CC(=O)O[C@H]1CC[C@@]2(C)C(CC=C3[C@@H]4CC[C@H]([C@H](C)CCOC=O)[C@@]4(C)CC[C@@H]32)C1 (stereo partly drawn) [Example 34, (3S,20R)-20-(2-Formyloxyethyl)-pregn-7-en-3-yl Acetate]
IC50 (HL-60 cells; [4]): 1000 nM

C=C(F)C(=O)OC[C@@H](C)C1CCC2c3ccc4c(c3CC[C@@]21C)CC[C@H](OC(C)=O)C4 (stereo partly drawn) [Example 35, (3S,20S)-20-[(2-Fluoroacryloyloxy)methyl]-pregn-5,7,9-trien-3-yl Acetate]
IC50 (HL-60 cells; [4]): 130 nM

C=C(F)C(=O)N(C)C[C@@H](C)[C@H]1CC[C@H]2C3=CCC4C[C@@H](OC(C)=O)CC[C@]4(C)[C@H]3CC[C@]12C (stereo partly drawn) [Example 37, (3S,20S)-20-[(2-Fluoro-N-methylacrylamido)methyl]-pregn-7-en-3-yl Acetate]
IC50 (HL-60 cells; [4]): 110 nM
